Laboratory results published in PMC7077986, “Molecular basis for catabolism of the abundant metabolite trans-4-hydroxy-L-proline by a microbial glycyl radical enzyme” (eLife, 2020).

T1: HypD (trans-4-hydroxy-L-proline dehydratase; CdHypD) (Clostridioides difficile, UniProt A0A031WDE4)
T1 construct: gene pflD; full length, N-terminal hexahistidine tag (pET28a-CdHypD), E. coli BL21-CodonPlus(DE3)-RIL (delta proC for assays); dimeric; for activity the Gly765 radical was installed by HypD-AE
T1 sequence (A0A031WDE4 1-789): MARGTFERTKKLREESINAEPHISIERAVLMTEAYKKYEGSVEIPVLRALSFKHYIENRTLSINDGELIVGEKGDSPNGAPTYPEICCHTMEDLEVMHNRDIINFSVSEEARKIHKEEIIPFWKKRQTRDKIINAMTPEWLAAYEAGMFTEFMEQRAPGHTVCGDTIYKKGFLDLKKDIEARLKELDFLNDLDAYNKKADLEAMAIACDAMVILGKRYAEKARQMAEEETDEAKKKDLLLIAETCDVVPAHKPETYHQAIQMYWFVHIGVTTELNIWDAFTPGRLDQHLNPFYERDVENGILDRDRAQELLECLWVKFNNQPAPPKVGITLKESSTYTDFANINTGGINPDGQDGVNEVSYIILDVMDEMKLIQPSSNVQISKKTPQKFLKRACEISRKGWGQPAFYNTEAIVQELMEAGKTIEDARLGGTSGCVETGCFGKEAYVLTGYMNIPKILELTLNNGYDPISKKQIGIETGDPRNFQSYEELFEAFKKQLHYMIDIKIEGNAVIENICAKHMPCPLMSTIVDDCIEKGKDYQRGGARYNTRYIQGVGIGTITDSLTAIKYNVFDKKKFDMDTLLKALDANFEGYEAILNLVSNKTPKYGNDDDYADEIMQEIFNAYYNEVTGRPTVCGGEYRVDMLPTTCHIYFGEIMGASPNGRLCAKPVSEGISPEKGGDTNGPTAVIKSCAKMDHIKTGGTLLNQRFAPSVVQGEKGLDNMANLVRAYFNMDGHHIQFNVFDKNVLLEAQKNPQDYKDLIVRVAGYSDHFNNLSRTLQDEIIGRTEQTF

B1: trans-4-hydroxy-L-proline dehydratase (HypD) from Clostridioides difficile 70-100-2010, wild type, unactivated (enzyme)
chain: T1 sequence (A0A031WDE4 1-789)
notes: HypD (trans-4-hydroxy-L-proline dehydratase), glycyl radical enzyme, gene amplified from C. difficile 70-100-2010 genomic DNA; UniProt A0A031WDE4; all residues other than the hexahistidine tag are seen in the structures; Crystallised with the N-terminal hexahistidine tag intact; also called Hyp dehydratase; CdHypD; source: E. coli BL21-CodonPlus(DE3)-RIL, pET28a-CdHypD, purified (Ni-NTA); not …

Key:
[1] = molecular target: T1, HypD (trans-4-hydroxy-L-proline dehydratase; CdHypD); experiment: X-ray crystal structure, […] Å; assay type: binding; settings: unactivated enzyme; active site; 4 mM Hyp in crystallization buffer, 100 mM Hyp in cryoprotectant, pH 7.5, 21 °C
[2] = molecular target: the molecule itself; experiment: crystal structure; unactivated wild-type HypD with intact N-terminal hexahistidine tag, crystallised aerobically, hanging drop, 21°C, 14% PEG 3350, 100 mM KCl, 100 mM HEPES pH 7.5; glycerol-bound (2.05 Å) and Hyp-bound (2.52 Å) crystals; eight chains in the asymmetric unit

Molecule | X-ray crystal structure, 2.52 Å [1] | stoichiometry N [2]
O=C(O)[C@@H]1C[C@@H](O)CN1 [Hyp] | In the active site of the Hyp-bound HypD structure, electron density was observed for the substrate | –
B1 | – | 2
